Consider three compounds from ChEMBL document CHEMBL3603759, “Ribosome-targeting antibiotics as inhibitors of oncogenic microRNAs biogenesis: Old scaffolds for new perspectives in RNA targeting” (Bioorg Med Chem, 2015).

Calls of active or inactive are those of the source. No cut-off for these calls is given here.

Experiment [1] is described as follows: Inhibition of pre-miR-372 (unknown origin) cleavage at A24 at 1 to 100 uM after 2 hrs by denaturing gel electrophoresis in presence of recombinant Dicer.
Experiment [2] can be described thus: Inhibition of pre-miR-372 (unknown origin) cleavage assessed as reduction of oncogenic microRNAs biogenesis by measuring fluorescence every minute for 5 hrs using 5'-FAM,3'-dabcyl-pre-miRNA beacons by FRET assay in presence of recombinant Dicer.
Experiment [3] can be described thus: Ratio of Kd for 5'-FAM-pre-miR-372 (unknown origin) in presence of 100-fold excess of 15-mer DNA to Kd for 5'-FAM-pre-miR-372 (unknown origin).
Experiment [4] in a line: Binding affinity to 5'-FAM-pre-miR-372 (unknown origin) after 4 hrs by fluorescence assay in presence of 100-fold excess of 15-mer DNA.
A short description of experiment [5]: Inhibition of pre-miR-373 (unknown origin) cleavage assessed as reduction of oncogenic microRNAs biogenesis at 200 uM by measuring fluorescence every minute for 5 hrs using 5'-FAM,3'-dabcyl-pre-miRNA beacons by FRET assay in presence of recombinant Dicer.
Experiment [6] can be described thus: Inhibition of pre-miR-372 (unknown origin) cleavage at A42 at 1 to 100 uM after 2 hrs by denaturing gel electrophoresis in presence of recombinant Dicer.
A short description of experiment [7]: Binding affinity to 5'-FAM-pre-miR-17 (unknown origin) after 4 hrs by fluorescence assay. Particulars: read-out: Kd.
A short description of experiment [8]: Inhibition of pre-miR-21 (unknown origin) cleavage assessed as reduction of oncogenic microRNAs biogenesis at 200 uM by measuring fluorescence every minute for 5 hrs using 5'-FAM,3'-dabcyl-pre-miRNA beacons by FRET assay in presence of recombinant Dicer.
Experiment [9] is described as follows: Inhibition of pre-miR-372 (unknown origin) cleavage at U28 at 1 to 100 uM after 2 hrs by denaturing gel electrophoresis in presence of recombinant Dicer.
The nature of experiment [10]: Inhibition of pre-miR-372 (unknown origin) cleavage at 1 to 100 uM after 15 mins by RNase footprinting assay in presence of RNase-V1.
Experiment [11] is described as follows: Inhibition of pre-miR-17 (unknown origin) cleavage assessed as reduction of oncogenic microRNAs biogenesis at 200 uM by measuring fluorescence every minute for 5 hrs using 5'-FAM,3'-dabcyl-pre-miRNA beacons by FRET assay in presence of recombinant Dicer.
Experiment [12] in a line: Ratio of Kd for 5'-FAM-pre-miR-372 (unknown origin) in presence of 100-fold excess of Escherichia coli tRNA to Kd for 5'-FAM-pre-miR-372 (unknown origin).
Experiment [13] can be described thus: Binding affinity to 5'-FAM-pre-miR-372 (unknown origin) assessed as change in total free energy by thermodynamic assay.
A short description of experiment [14]: Inhibition of pre-miR-21 (unknown origin) cleavage assessed as reduction of oncogenic microRNAs biogenesis by measuring fluorescence every minute for 5 hrs using 5'-FAM,3'-dabcyl-pre-miRNA beacons by FRET assay in presence of recombinant Dicer.
Experiment [15] is described as follows: Binding affinity to 5'-FAM-pre-miR-373 (unknown origin) after 4 hrs by fluorescence assay. The following applies: read-out: Kd.
Experiment [16] in a line: Inhibition of pre-miR-17 (unknown origin) cleavage assessed as reduction of oncogenic microRNAs biogenesis by measuring fluorescence every minute for 5 hrs using 5'-FAM,3'-dabcyl-pre-miRNA beacons by FRET assay in presence of recombinant Dicer.
Experiment [17] in a line: Inhibition of pre-miR-373 (unknown origin) cleavage assessed as reduction of oncogenic microRNAs biogenesis by measuring fluorescence every minute for 5 hrs using 5'-FAM,3'-dabcyl-pre-miRNA beacons by FRET assay in presence of recombinant Dicer.
Experiment [18] can be described thus: Binding affinity to 5'-FAM-pre-miR-372 (unknown origin) after 4 hrs by fluorescence assay. Particulars: read-out: Kd.
Experiment [19] is described as follows: Binding affinity to 5'-FAM-pre-miR-372 (unknown origin) after 4 hrs by fluorescence assay in presence of 100-fold excess of Escherichia coli tRNA.
Experiment [20] can be described thus: Inhibition of pre-miR-372 (unknown origin) cleavage at U31, G32 and U33 at 1 to 100 uM after 15 mins by RNase footprinting assay in presence of RNase-S1.
Experiment [21] in a line: Inhibition of pre-miR-372 (unknown origin) cleavage assessed as reduction of oncogenic microRNAs biogenesis at 200 uM by measuring fluorescence every minute for 5 hrs using 5'-FAM,3'-dabcyl-pre-miRNA beacons by FRET assay in presence of recombinant Dicer.
Experiment [22] can be described thus: Inhibition of pre-miR-372 (unknown origin) cleavage at 10 to 100 uM after 15 mins by RNase footprinting assay in presence of RNase-S1.
Experiment [23] is described as follows: Inhibition of pre-miR-372 (unknown origin) cleavage at C27 at 10 to 100 uM after 15 mins by RNase footprinting assay in presence of RNase-V1.
Experiment [24] in a line: Inhibition of pre-miR-372 (unknown origin) cleavage at U15-G16-G17-A18 at 10 to 100 uM after 15 mins by RNase footprinting assay in presence of RNase-V1.
The nature of experiment [25]: Inhibition of pre-miR-372 (unknown origin) cleavage at A10-A11 at 10 to 100 uM after 15 mins by RNase footprinting assay in presence of RNase-V1.

A word on the inhibition: it is the share of the control response that was lost under treatment. As a reminder, the IC50 is the concentration that gives 50% inhibition. As usually defined, the Kd is the constant that tells how readily two partners part at equilibrium. For `CN(C)c1ccc(O)c2c1C[C@H]1C[C@H]3[C@H](N(C)C)C(O)=C(C(N)=O)C(=O)[C@@]3(O)C(O)=C1C2=O` [MINOCYCLINE], the inhibition entry in [1], in [6], in [9] and in [10] was “inactive” throughout. Besides, the IC50 came out at 397 µM in experiment [2], 369 µM in experiment [14], 129 µM in experiment [16] and 327 µM in [17]. The values for the Ratio in [3] and in [12] were 2.4 and 3.2, respectively. Besides, the Kd was 1.45 µM in experiment [4]; 0.651 µM in [7]; 0.597 µM in [15]; 0.612 µM in experiment [18]; 1.98 µM in experiment [19]. The inhibition in [5], in experiment [8], in experiment [11] and in experiment [21] was 30% throughout. Besides, the Activity in [13] was 91%. For the same compound, in experiment [20], the inhibition result is “Active”.
On to `NC[C@@H]1O[C@H](O[C@H]2[C@@H](O)[C@H](O[C@@H]3[C@@H](O)[C@H](N)C[C@H](N)[C@H]3O[C@H]3O[C@H](CN)[C@@H](O)[C@H](O)[C@H]3N)O[C@@H]2CO)[C@H](N)[C@@H](O)[C@@H]1O` [FRAMYCETIN], for which the inhibition entry in [1], in experiment [6], in [23], in experiment [24], in experiment [9] and in experiment [25] was “Active” each time. In addition, the IC50 in [2] came out at 88.2 µM; in [14], 76.7 µM; in [16] it was 93.7 µM; in experiment [17], 143 µM. Moreover, the Ratio in experiment [3] and in experiment [12] was 1 throughout. Also, the Kd amounted to 11.3 µM in experiment [4]; 1.88 µM in experiment [7]; 15.2 µM in experiment [15]; 11.6 µM in experiment [18]; 11.7 µM in experiment [19]. Besides, the inhibition result in experiment [22] was “inactive”. The inhibition in [5], in [8], in experiment [11] and in [21] was 60% throughout. Further, the Activity in experiment [13] stood at 70%.
`CN(C)[C@@H]1C(O)=C(C(N)=O)C(=O)[C@@]2(O)C(O)=C3C(=O)c4c(O)cccc4[C@@](C)(O)[C@H]3[C@H](O)[C@@H]12` [OXYTETRACYCLINE]: the IC50 in experiment [2] came out at 657 µM; in experiment [14], 613 µM; in [16], 392 µM; in experiment [17] it was 491 µM. In addition, the Ratio worked out at 1.6 in experiment [3] and 1.3 in experiment [12]. Also, the Kd in experiment [4] amounted to 10.2 µM; in experiment [7], 6.22 µM; in experiment [15], 5.2 µM; in experiment [18], 6.15 µM; in experiment [19], 8.01 µM. For the same compound, the inhibition in [5], in experiment [8], in experiment [11] and in [21] was 10% in each case. Further, in [13], the Activity was determined as 90%.
